The text below walks through data of publication PMC4043709 (Drug Design, Development and Therapy, 2014).

This data set deals with T1, ABCG2 (Homo sapiens, UniProt Q9UNQ0).
T1 sequence (Q9UNQ0 1-655): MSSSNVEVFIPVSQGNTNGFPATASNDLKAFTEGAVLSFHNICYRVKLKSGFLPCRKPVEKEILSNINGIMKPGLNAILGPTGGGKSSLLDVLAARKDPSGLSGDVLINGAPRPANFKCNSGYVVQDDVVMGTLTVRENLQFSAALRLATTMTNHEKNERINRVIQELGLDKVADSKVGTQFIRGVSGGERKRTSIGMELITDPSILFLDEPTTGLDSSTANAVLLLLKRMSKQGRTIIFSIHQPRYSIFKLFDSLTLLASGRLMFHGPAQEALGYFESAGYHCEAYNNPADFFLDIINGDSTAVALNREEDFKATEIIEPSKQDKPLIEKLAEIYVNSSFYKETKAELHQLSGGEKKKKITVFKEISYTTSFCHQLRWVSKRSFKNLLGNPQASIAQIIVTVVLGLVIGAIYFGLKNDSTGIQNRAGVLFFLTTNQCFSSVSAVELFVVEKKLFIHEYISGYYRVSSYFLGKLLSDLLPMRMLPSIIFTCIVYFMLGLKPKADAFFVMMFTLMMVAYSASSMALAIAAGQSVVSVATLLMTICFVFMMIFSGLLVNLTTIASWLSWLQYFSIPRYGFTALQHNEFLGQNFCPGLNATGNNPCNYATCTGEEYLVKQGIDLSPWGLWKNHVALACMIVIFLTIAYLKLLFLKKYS
Briefly: ABCG2-mediated mitoxantrone efflux. Format: cell-based. To be noted: 6 versus 3; 10 versus 5.

SMILES strings stand for the structures.

Regarding `COc1cc(C(=O)/C=C/c2ccc3nccnc3c2)ccc1O` [Compound 6, (2E)-1-(3′-methoxy,4′-hydroxy-phenyl)-3-(quinoxalin-6-yl)-2-propen-1-one], the “fold decrease of inhibition caused by hydroxyl group at 4′ position” value was determined as 8 fold.
In the case of `COc1cc(C(=O)/C=C/c2ccc3nccnc3c2)cc(OC)c1O` [Compound 10, (2E)-1-(3′,5′-dimethoxy,4′-hydroxy-phenyl)-3-(quinoxalin-6-yl)-2-propen-1-one], the “fold decrease of inhibition caused by hydroxyl group at 4′ position” value is listed as 5 fold.
